# Measurements from patent US10342776B2, “Compositions and methods for controlling infections” (priority 2004, dated 2019).
# Key:
# [1] = test system: Candida albicans (clinical isolates, yeast phase); experiment: Yeast phase Candida albicans liquid cultures with GML, CFU/ml by plating; type: cell-based
# Procedure: The Candida albicans samples that were tested in the experiments described in Examples 2 and 3 were recent clinical isolates. The strains were of low passage and were maintained on Todd Hewitt (Difco Laboratories, Detroit, Mich.) agar plates. The organisms were transferred to 25 ml Todd Hewitt broth cultures in 125 ml Erlenmeyer flasks and grown overnight at 37° C. in 7% CO2 with shaking at 200 revolutions per minute (RPM). The next morning the organisms were transferred to new 125 ml flasks containing 25 ml Todd Hewitt medium at a final concentration of 1×10^6 colony forming units (CFU)/ml. […] The GML was made up at a concentration of 100,000 μg/ml in absolute ethanol for addition to the flasks. […] The flasks were cultured for up to 24 hours at 37° C. in 7% CO2 with shaking at 200 revolutions per minute. […] This experiment was performed twice.
# The effect of growing yeast phase organisms of a clinical isolate of Candida albicans in the presence of GML was tested in liquid cultures as described in Example 1. […] The GML-mediated killing effect was not seen in cultures containing 20 and 10 μg/ml of GML. […] The experiment was repeated with identical results. The experiment was also carried out with a second clinical isolate of Candida albicans.
# [2] = test system: Candida albicans (five clinical isolates); experiment: Growth inhibition of five other clinical isolates of Candida albicans in liquid culture (absorbance at 600 nm, CFU/ml); type: cell-based; details: for average CFU/ml after culturing: 6 hours, start about 10^6 CFU/ml
# Procedure: Five clinical isolates of Candida albicans (separate from those tested in experiments described in Example 2) were tested for susceptibility to growth inhibition by GML. The data in FIG. 3 are the means of values obtained by separately testing each of the five clinical isolates. The experiments were performed in liquid culture as described in Example 2 except that, instead of measuring the number of organisms in the cultures by plating on agar plates, values of absorbance at 600 nm were determined at the indicated time points. An absorbance value of 6.5 corresponds to about 5×10^8 CFU/ml of Candida albicans. The growth of all of the isolates was inhibited by GML. Culturing for 6 hours 0.1 ml aliquots of the isolates (containing about 10^6 CFU/ml) in 100 μg/ml and 500 μg/ml of GML yielded an average of about 700 CFU/ml and about 400 CFU/ml, respectively.
# [3] = test system: Gardnerella vaginalis (clinical isolate); experiment: G. vaginalis liquid culture with GML in the presence of 10% fetal calf serum; type: cell-based; details: for Cells/ml (×10^7) at 24 hours: 10% fetal calf serum
# Procedure: Cells (1.2×10^7/ml in a total volume of 25 ml of dialyzable beef heart medium) of a recent clinical isolate of the gram negative rod Gardnerella vaginalis in vitro were cultured for various lengths of time with various concentrations of GML. At the various time points, the concentration of bacteria in the cultures were determined by colony counting on chocolate agar plates. GML at concentrations as low as 5 μg/ml were bactericidal to G. vaginalis. […] This finding points to the likely efficacy of GML in vivo. Moreover, GML (5 μg/ml or greater) inhibited growth of G. vaginalis plated (0.1 ml at 1.2×10^7/ml) onto chocolate agar plates (Table 3; data obtained after 24 hours of culturing).
# Neisseria gonorrheae = details: earlier work, U.S. application Ser. No. 10/986,512; cited from earlier work
# [4] = first clinical isolate, 50, 200 and 1000 μg/ml GML, by 4 hours
smiles,measurement,setting,value
"CCCCCCCCCCCC(=O)OCC(O)CO (stereo not shown) [GML, glycerol monolaurate]",growth in culture,"[1]; first clinical isolate, 20 and 10 μg/ml GML",grew to almost the same level as in the control cultures
same,organisms detectable in culture,[1]; [4],no organisms were detectable
same,reduction in CFU/ml,[1]; [4],> 5 log
same,number of organisms in culture compared to 0 μg/ml,"[1]; second clinical isolate, 50 μg/ml GML, 2, 4 and 6 hours",reduced at all time intervals sampled
same,organisms detectable in culture,"[1]; second clinical isolate, 100 and 500 μg/ml GML, by 2 hours",no organisms were detectable
same,average CFU/ml after culturing,[2]; 100 μg/ml GML,about 700 CFU/ml
same,average CFU/ml after culturing,[2]; 500 μg/ml GML,about 400 CFU/ml
same,growth of the isolates,"[2]; five clinical isolates, liquid culture, absorbance at 600 nm",inhibited
same,Cells/ml (×10^7) at 24 hours,[3]; GML 1 μg/ml,210 Cells/ml (×10^7)
same,Cells/ml (×10^7) at 24 hours,[3]; GML 5 μg/ml,201 Cells/ml (×10^7)
same,Cells/ml (×10^7) at 24 hours,[3]; GML 10 μg/ml,160 Cells/ml (×10^7)
same,Cells/ml (×10^7) at 24 hours,[3]; GML 20 μg/ml,88 Cells/ml (×10^7)
same,Cells/ml (×10^7) at 24 hours,[3]; GML 50 μg/ml,1.8 Cells/ml (×10^7)
same,Cells/ml (×10^7) at 24 hours,[3]; GML 100 μg/ml,<0.03 Cells/ml (×10^7)
same,inhibition of growth of G. vaginalis,[3]; medium supplemented with fetal calf serum,effective in inhibiting the growth
same,resistance to direct toxic effects of GML,Neisseria gonorrheae,relatively resistant
